Data: PubChem BioAssay AID2745 (NMMLSC, 2010)
The source made the active and inactive calls. No rule for the calls is given here.

Test system: S. cerevisiae LAP4-GFP reporter, flow cytometry fluorescence
Assay: concentration series on yeast TOR reporter LAP4 – cell-based, MLPCN hits, flow cytometry, dose response (AID 2745);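 also: yeast exposed to compound for three hours at 30 degrees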
Conditions: not given

Compound | EC50
Cc1ccc(/C=C2/SC(=S)N(C3CCCCC3)C2=O)o1 | 13.3 µM
O=C1c2ccccc2C(=O)C2OC12 (centres undefined) | 19.6 µM
CC1=NOC(=O)/C1=C\c1ccc(-c2cc(Cl)ccc2Cl)o1 | 26.8 µM
O=C1C=CC(=O)N1N(c1ccccc1)c1ccccc1 | 2.7 µM
O=C(C#Cc1ccccc1)c1ccco1 | 5.17 µM
Cc1cc(S(=O)(=O)ON2C(=O)c3ccccc3C2=O)ccc1F | 4.21 µM
CCOC(=O)c1ccc(N=Cc2nc(-c3ccccc3)oc2OC(C)=O)cc1 | 25.9 µM
CS(=O)(=O)c1nc(-c2cccs2)cc(C(F)(F)F)n1 | 30.5 µM
Cc1ccc(C(=O)NNC(=S)NC(=O)COc2ccccc2)cc1 | 8.27 µM
Cc1[nH]n(-c2ccccc2)c(=O)c1C(c1ccccc1[N+](=O)[O-])C(C#N)C#N (centres undefined) | 7.67 µM
O=C(Nc1nnc(-c2ccc(Cl)cc2)o1)c1ccccc1Br | 4.31 µM
O=C(O)/C=C/C(=O)c1ccc2c(c1)CCc1ccccc1-2 | 1.2 µM
O=C1Oc2ccccc2C(=O)/C1=C/c1ccccc1O | 3.75 µM
Clc1cccc(CN2COc3c(cc(Cl)c4cccnc34)C2)c1 | 8.55 µM
Cc1ccc(C(c2cc(Cl)c3cccnc3c2O)N2CCN(C)CC2)cc1 (centres undefined) | 2.21 µM
O=C(Oc1c(Cl)cc(Cl)c2cccnc12)c1cccc([N+](=O)[O-])c1 | 2.02 µM
CCc1ccc(OCC(=O)NNC(=S)NC(=O)C2CC2)c(Br)c1 | 5.45 µM
Cn1c(=O)c(C(=O)NNC(=O)c2ccc(Br)cc2)c(O)c2ccccc21 | 0.762 µM
O=C1ON=C(c2ccccc2)/C1=C/c1ccco1 | 4.26 µM
COc1ccc(N=Nc2ccc(O)c3ncccc23)cc1 | 6.43 µM
Cc1ccc(/C=N/Nc2ncc(Cl)cc2Cl)s1 | 31.7 µM
CCCCCCCCn1sccc1=O | 0.912 µM

Compound | EC50
CN1CCN(C(c2ccc(C(F)(F)F)cc2)c2ccc3cccnc3c2O)CC1 (centres undefined) | 6.72 µM
COc1ccc(C(=O)/C=C2/C(=O)Nc3ccccc32)cc1 | 3.38 µM
O=C(COc1ccccc1)NNC(=S)NC(=O)c1ccc(Cl)cc1Cl | 17.8 µM
ClC(Cl)(c1nnnn1-c1ccccc1)c1nnnn1-c1ccccc1 | 3.8 µM
O=[N+]([O-])c1cc(Cl)cc(/C=N\Nc2ccccn2)c1O | 3.33 µM
Cc1ccc2nc(Cl)c3nnnn3c2c1 | 3.84 µM
O=C(CCc1ccccc1)NNC(=S)NC(=O)c1ccccc1 | 32.2 µM
O=C(C#Cc1ccccc1)c1cccc([N+](=O)[O-])c1 | 7.75 µM
CCOC(=O)c1cc(-c2ccc(/C=C3/C(=O)NC(=O)C(C#N)=C3C)o2)ccc1Cl | 1.36 µM
CCOC(=O)CSC1=NC(=O)/C(=C/c2ccc(Br)cc2)S1 | 15 µM
O=C(OCn1ncc(Br)c(Br)c1=O)c1ccc(F)cc1 | 19.1 µM
Cc1c(Cc2ccccc2)c(NCCN(C)C)n2c(nc3ccccc32)c1C#N | 29.9 µM
Cc1cccc(C(=O)NC(=S)NNC(=O)Cc2ccccc2)c1 | 10.9 µM
COc1cccc(/C=C/C(=O)c2c(O)cc(C)oc2=O)c1O | 4.42 µM
Cc1ccccc1N=Nc1ccc(O)c2ncccc12 | 7.96 µM
N/C(Cc1ccc(Cl)cc1)=N\OC(=O)c1ccccc1 | 4.4 µM
CCCCC(=O)NNC(=S)NC(=O)c1ccc(C)cc1 | 11.3 µM
COc1ccc(N2C(=O)C(Cl)=C(Oc3cccc(OC)c3)C2=O)cc1 | 4.89 µM
O=[N+]([O-])c1cc(S(=O)(=O)C(F)(F)F)ccc1Sc1nc2ccccc2s1 | 8.42 µM
COc1ccc(C(=O)NC(=S)NNC(=O)c2cnccn2)cc1 | 1.32 µM
COc1ccc(C(=O)NNC(=S)NC(=O)/C=C/c2cccs2)cc1 | 9.05 µM

Test system: not listed separately
Assay: as above
Conditions: S. cerevisiae LAP4-GFP reporter, flow cytometry fluorescence; at 33 µM (top of the series)

Compound | LAP4-GFP fluorescence (kMESF)
CN(Cc1cnc2nc(N)nc(N)c2n1)c1ccc(C(=O)N[C@@H](CCC(=O)O)C(=O)O)cc1 | 10.8 kMESF (inactive)
